From the supplement of paper PMC10307832 come the findings set out here.

Common to all, as to assay: relative viability (nuclei count vs DMSO), 5 days (fraction); higher = more cells survive
Compound in assay [1]: O=C(CCCCCCNC(=O)c1cnc(N(c2ccccc2)c2ccccc2)nc1)NO [Ricolinostat] + CC(C)C[C@H](NC(=O)[C@H](Cc1ccccc1)NC(=O)c1cnccn1)B(O)O [Bortezomib] (partner 0.002 µM)
Put shortly:
(§1)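 Cells from lung cancer lines were seeded into 1536-well plates and, one day later, dosed by pin tool. Treatments were either a single drug or a fixed dose of an anchor drug with five library-drug doses (not always all listed) in √10 steps. After 5 days, nuclei were stained in a one-step fixation (final 0.05% Triton X-100, 1% formaldehyde, 1 ug/ml Hoechst) and counted on 4× images, and relative viability is the treated-to-vehicle nuclei ratio, as the median of duplicate plates.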

Compound in assay [2]: O=C(CCCCCCNC(=O)c1cnc(N(c2ccccc2)c2ccccc2)nc1)NO [Ricolinostat] + C[C@@H](Oc1cc(-c2cnn(C3CCNCC3)c2)cnc1N)c1c(Cl)ccc(F)c1Cl [Crizotinib] (partner 1 µM)
Put shortly:
as §1

Compound in assay [3]: C1=CC=C(C(=C1)C2=CC=C(C=C2)C3=CSC4=C3C(=C(C(=O)N4)C#N)O)O + CS(=O)(=O)N1CCN(Cc2cc3nc(-c4cccc5[nH]ncc45)nc(N4CCOCC4)c3s2)CC1 [Pictilisib] (partner 1 µM)
A digest of the protocol:
as §1

Compound in assay [4]: C1=CC=C(C(=C1)C2=CC=C(C=C2)C3=CSC4=C3C(=C(C(=O)N4)C#N)O)O + CC1(C)CCC(c2ccc(Cl)cc2)=C(CN2CCN(c3ccc(C(=O)NS(=O)(=O)c4ccc(N[C@H](CCN5CCOCC5)CSc5ccccc5)c(S(=O)(=O)C(F)(F)F)c4)cc3)CC2)C1 [Navitoclax] (partner 0.5 µM)
A digest of the protocol:
as §1

Compound in the assay “Ricolinostat + AZD7762”: O=C(CCCCCCNC(=O)c1cnc(N(c2ccccc2)c2ccccc2)nc1)NO [Ricolinostat] + NC(=O)Nc1cc(-c2cccc(F)c2)sc1C(=O)N[C@H]1CCCNC1 [AZD7762] (partner 0.2 µM)
A digest of the protocol:
as §1

For NCI-H1792, the relative viability in assay [1] (first compound 0.08 µM) was determined as 0.899; in assay [1] (first compound 0.253 µM), 0.926; in assay [1] (first compound 0.8 µM) it was 0.944; in assay [1] (first compound 2.53 µM) it was 0.973; in assay [2] (first compound 0.08 µM) it was 0.849; in assay [2] (first compound 0.253 µM), 0.988. Further, the relative viability was 0.913 in assay [2] (first compound 0.8 µM); 1 in assay [2] (first compound 2.53 µM); 0.275 in assay [3] (first compound 0.253 µM); 0.266 in assay [3] (first compound 0.8 µM); 0.19 in assay [3] (first compound 2.53 µM); 0.18 in assay [3] (first compound 8 µM). In addition, the relative viability in assay [4] (first compound 0.253 µM) was 0.441; in assay [4] (first compound 0.8 µM), 0.354; in assay [4] (first compound 2.53 µM), 0.704; in assay [4] (first compound 8 µM), 0.276; in the assay with Ricolinostat + AZD7762 (first compound 0.253 µM) it was 0.716; in the assay with Ricolinostat + AZD7762 (first compound 0.8 µM) it was 0.581. The relative viability with Ricolinostat + AZD7762 (first compound 2.53 µM) is 0.375.
